Experimental data taken from article PMC6749364, “Pharmacokinetics and Tissue Distribution of Alnustone in Rats after Intravenous Administration by Liquid Chromatography-Mass Spectrometry” (Molecules, 2019).

Tests used:
[1] = Stability of alnustone in rat plasma and tissue homogenates (QC samples); format: in vitro ADME, rats; conditions: in % (unit assumed)
Description: The calibration standards were prepared by spiking a certain volume of blank plasma or blank tissue homogenates with appropriate amounts of working solutions to yield a final concentration range from 1 to 2000 ng/mL. The effective concentrations of alnustone were 1, 5, 10, 40, 160, 200, 800, 2000 ng/mL for the plasma samples and tissue homogenates samples (heart, liver, spleen, lung, kidney, brain, stomach, intestine). […]
The stability tests involved the following four conditions. The short-term stability study was examined by analyzing samples at room temperature for 4 h. The long-term stability study was performed by analyzing samples stored at −75 °C for 1 month. For the freeze-thaw stability study, the samples were analyzed after three freeze/thaw cycles (−75 °C to 25 °C). The post-preparative storage stability was assessed by analyzing the samples left in autosampler vials at 4 °C for 24 h. The stability analysis was performed using three aliquots of each QC samples at three different concentrations. The samples were considered stable if the assay values were within the acceptable limits of accuracy (±15% RE) and precision (≤15% RSD).

[2] = test system: LO-2 (human normal liver cells); parameters: method as in earlier work; conditions: LO-2 cell line; cited from earlier work
[3] = Brain homogenate, QC 1600 ng/mL
[4] = Heart homogenate, QC 1600 ng/mL
[5] = Intestine homogenate, QC 1 ng/mL
[6] = Intestine homogenate, QC 5 ng/mL
[7] = Intestine homogenate, QC 100 ng/mL
[8] = Intestine homogenate, QC 1600 ng/mL
[9] = Kidney homogenate, QC 100 ng/mL
[10] = Kidney homogenate, QC 1600 ng/mL
[11] = Liver homogenate, QC 1600 ng/mL
[12] = Spleen homogenate, QC 100 ng/mL
[13] = Spleen homogenate, QC 1600 ng/mL

## O=C(/C=C/C=C/c1ccccc1)CCc1ccccc1 [alnustone, Alnustone]
[1]; Brain homogenate, QC 1 ng/mL
  Stability: Autosampler 4 °C for 24 h: 109.2 ± 6.7
  Stability: Short-Term (at Room Temperature for 4 h): 110.6 ± 5.8
  Stability: Storage at −75°C for 30 d: 103.8 ± 4.1
  Stability: Three Freeze-Thraw Cycles: 86.5 ± 6.1
[1]; Brain homogenate, QC 5 ng/mL
  Stability: Autosampler 4 °C for 24 h: 104.9 ± 7.0
  Stability: Short-Term (at Room Temperature for 4 h): 109.0± 4.4
  Stability: Storage at −75°C for 30 d: 108.9 ± 3.8
  Stability: Three Freeze-Thraw Cycles: 89.2 ± 4.6
[1]; Brain homogenate, QC 100 ng/mL
  Stability: Autosampler 4 °C for 24 h: 95.4 ± 5.7
  Stability: Short-Term (at Room Temperature for 4 h): 99.3 ± 7.5
  Stability: Storage at −75°C for 30 d: 90.2 ± 7.4
  Stability: Three Freeze-Thraw Cycles: 98.0 ± 8.1
[1]; [3]
  Stability: Autosampler 4 °C for 24 h: 104.2 ± 4.9
  Stability: Short-Term (at Room Temperature for 4 h): 96.3 ± 7.4
  Stability: Storage at −75°C for 30 d: 112.3 ± 8.9
  Stability: Three Freeze-Thraw Cycles: 110.2 ± 6.8
[1]; Heart homogenate, QC 100 ng/mL
  Stability: Autosampler 4 °C for 24 h: 89.0 ± 3.4
  Stability: Storage at −75°C for 30 d: 112.4 ± 4.0
  Stability: Three Freeze-Thraw Cycles: 104.8 ± 6.6
[1]; [4]
  Stability: Autosampler 4 °C for 24 h: 90.3 ± 5.2
  Stability: Short-Term (at Room Temperature for 4 h): 91.8 ± 5.8
  Stability: Storage at −75°C for 30 d: 95.6 ± 5.4
  Stability: Three Freeze-Thraw Cycles: 95.3 ± 9.0
[1]; [5]
  Stability: Autosampler 4 °C for 24 h: 90.0 ± 5.7
  Stability: Short-Term (at Room Temperature for 4 h): 89.6 ± 8.1
  Stability: Storage at −75°C for 30 d: 96.5 ± 5.7
  Stability: Three Freeze-Thraw Cycles: 113.7 ± 8.7
[1]; [6]
  Stability: Autosampler 4 °C for 24 h: 90.9 ± 5.0
  Stability: Short-Term (at Room Temperature for 4 h): 95.8 ± 7.7
  Stability: Storage at −75°C for 30 d: 92.6 ± 3.7
  Stability: Three Freeze-Thraw Cycles: 108.7 ± 9.4
[1]; [7]
  Stability: Autosampler 4 °C for 24 h: 98.0 ± 4.9
  Stability: Short-Term (at Room Temperature for 4 h): 95.3 ± 6.7
  Stability: Storage at −75°C for 30 d: 114.4 ± 4.9
  Stability: Three Freeze-Thraw Cycles: 96.9 ± 3.8
[1]; [8]
  Stability: Autosampler 4 °C for 24 h: 103.0 ± 8.4
  Stability: Short-Term (at Room Temperature for 4 h): 105.9 ± 7.1
  Stability: Storage at −75°C for 30 d: 107.0 ± 4.3
  Stability: Three Freeze-Thraw Cycles: 113.6 ± 2.8
[1]; Kidney homogenate, QC 1 ng/mL
  Stability: Autosampler 4 °C for 24 h: 116.5 ± 8.0
  Stability: Short-Term (at Room Temperature for 4 h): 107.8 ± 7.5
  Stability: Storage at −75°C for 30 d: 89.8 ± 8.1
  Stability: Three Freeze-Thraw Cycles: 93.7 ± 7.0
[1]; Kidney homogenate, QC 5 ng/mL
  Stability: Autosampler 4 °C for 24 h: 114.1 ± 7.4
  Stability: Short-Term (at Room Temperature for 4 h): 110.7 ± 6.6
  Stability: Storage at −75°C for 30 d: 88.5 ± 6.4
  Stability: Three Freeze-Thraw Cycles: 95.7 ± 5.7
[1]; [9]
  Stability: Autosampler 4 °C for 24 h: 108.0 ± 5.7
  Stability: Short-Term (at Room Temperature for 4 h): 109.7 ± 8.3
  Stability: Storage at −75°C for 30 d: 111.0 ± 7.5
  Stability: Three Freeze-Thraw Cycles: 90.9 ± 7.0
[1]; [10]
  Stability: Autosampler 4 °C for 24 h: 95.9 ± 6.0
  Stability: Short-Term (at Room Temperature for 4 h): 100.7 ± 7.0
  Stability: Storage at −75°C for 30 d: 100.5 ± 10.6
  Stability: Three Freeze-Thraw Cycles: 112.5 ± 5.2
[1]; Liver homogenate, QC 1 ng/mL
  Stability: Autosampler 4 °C for 24 h: 93.1 ± 5.7
  Stability: Short-Term (at Room Temperature for 4 h): 98.8 ± 6.8
  Stability: Storage at −75°C for 30 d: 111.5 ± 6.9
  Stability: Three Freeze-Thraw Cycles: 101.5 ± 10.1
[1]; Liver homogenate, QC 5 ng/mL
  Stability: Autosampler 4 °C for 24 h: 95.3 ± 3.2
  Stability: Short-Term (at Room Temperature for 4 h): 95.4 ± 5.8
  Stability: Storage at −75°C for 30 d: 106.5 ± 10.1
  Stability: Three Freeze-Thraw Cycles: 98.8 ± 9.9
[1]; Liver homogenate, QC 100 ng/mL
  Stability: Autosampler 4 °C for 24 h: 101.3 ± 5.6
  Stability: Short-Term (at Room Temperature for 4 h): 111.0 ± 4.9
  Stability: Storage at −75°C for 30 d: 105.4 ± 7.2
  Stability: Three Freeze-Thraw Cycles: 108.4 ± 7.8
[1]; [11]
  Stability: Autosampler 4 °C for 24 h: 94.8 ± 7.7
  Stability: Short-Term (at Room Temperature for 4 h): 106.4 ± 6.0
  Stability: Storage at −75°C for 30 d: 97.7 ± 6.8
  Stability: Three Freeze-Thraw Cycles: 98.3 ± 6.3
[1]; Lung homogenate, QC 1 ng/mL
  Stability: Autosampler 4 °C for 24 h: 105.8 ± 7.0
  Stability: Short-Term (at Room Temperature for 4 h): 89.5 ± 7.6
  Stability: Storage at −75°C for 30 d: 103.4 ± 8.7
  Stability: Three Freeze-Thraw Cycles: 108.2 ± 9.5
[1]; Lung homogenate, QC 5 ng/mL
  Stability: Autosampler 4 °C for 24 h: 103.4 ± 7.1
  Stability: Short-Term (at Room Temperature for 4 h): 92.4 ± 6.4
  Stability: Storage at −75°C for 30 d: 93.0 ± 9.6
  Stability: Three Freeze-Thraw Cycles: 105.8 ± 8.7
[1]; Lung homogenate, QC 100 ng/mL
  Stability: Autosampler 4 °C for 24 h: 98.4 ± 5.4
  Stability: Short-Term (at Room Temperature for 4 h): 106.4 ± 8.6
  Stability: Storage at −75°C for 30 d: 101.0 ± 7.5
  Stability: Three Freeze-Thraw Cycles: 94.4 ± 2.6
[1]; Lung homogenate, QC 1600 ng/mL
  Stability: Autosampler 4 °C for 24 h: 100.6 ± 9.7
  Stability: Short-Term (at Room Temperature for 4 h): 91.2 ± 6.8
  Stability: Storage at −75°C for 30 d: 92.3 ± 6.3
  Stability: Three Freeze-Thraw Cycles: 93.8 ± 4.6
[1]; Spleen homogenate, QC 1 ng/mL
  Stability: Autosampler 4 °C for 24 h: 108.0 ± 6.0
  Stability: Short-Term (at Room Temperature for 4 h): 108.5± 6.4
  Stability: Storage at −75°C for 30 d: 102.3 ± 4.9
  Stability: Three Freeze-Thraw Cycles: 101.2 ± 7.4
[1]; Spleen homogenate, QC 5 ng/mL
  Stability: Autosampler 4 °C for 24 h: 101.8 ± 4.3
  Stability: Short-Term (at Room Temperature for 4 h): 114.7 ± 5.8
  Stability: Storage at −75°C for 30 d: 98.1 ± 3.9
  Stability: Three Freeze-Thraw Cycles: 106.2 ± 6.9
[1]; [12]
  Stability: Autosampler 4 °C for 24 h: 92.9 ± 6.5
  Stability: Short-Term (at Room Temperature for 4 h): 107.5 ± 8.9
  Stability: Storage at −75°C for 30 d: 114.3 ± 6.6
  Stability: Three Freeze-Thraw Cycles: 105.3 ± 3.1
[1]; [13]
  Stability: Autosampler 4 °C for 24 h: 102.1 ± 9.3
  Stability: Short-Term (at Room Temperature for 4 h): 104.4 ± 6.1
  Stability: Storage at −75°C for 30 d: 104.0 ± 3.2
  Stability: Three Freeze-Thraw Cycles: 92.9 ± 7.6
[2]
  antitumor activity in vitro: significant antitumor activity
